33 molecules from patent US11912695B2, “Benzodiazepine derivatives as RSV inhibitors” (ENANTA PHARMACEUTICALS, INC., priority 2019, dated 2024) can be followed below.

SMILES strings stand for the structures.

In test [1] the test system is Human RSV-A (“Long” strain). Put plainly: RSV-A assay (CPE, ATPlite) in Hep-2 cells. It is filed as cell-based. Particulars: human respiratory syncytial virus, 120 h, MOI 0.1, 5-day incubation, ATPlite readout. The source says:
Hep-2 cells, (originally derived from tumors grown in irradiated-cortisonised weanling rats that had been injected with epidermoid carcinoma tissue from a person's larynx, but later found to be indistinguishable from HeLa cells by PCR DNA analysis), were used for the culturing of genotype A, “Long” strain RSV. Flasks were inoculated with RSV and viral stocks were collected once cytopathic effect (CPE) was greater than 90%. Viral stocks in 25% sucrose media were snap frozen using liquid nitrogen to increase viral stability. Viral stock titers were quantified by tissue culture infectious dose 50% (TCID50) using 8,000 cells per well and 3-fold viral dilutions across a 96-well plate, cultured for 4 days. Viral stock titers were also quantified by a plaque forming unit assay, as described elsewhere.
Following extensive parameter testing, the final assay is run as follows: Hep-2 cells are seeded into the inner 60 wells of a 96-well plate at 8,000 cells per well in a volume of 50 μL using Growth Media (DMEM without phenol red, 1% L-Glut, 1% Penn/Strep, 1% nonessential amino acids, 10% heat-inactivated FBS). 2-fold serial dilutions of control and test compounds are added to the wells in duplicate in a total volume of 25 μL. Viral stock is then added to the wells at a multiplicity of infection (MOI) of 0.1 in a volume of 25 μL, bringing the total volume of each well to 100 μL. The MOI is calculated using the PFU/mL, or TCID50 if unavailable. Each 96-well plate has a control column of 6 wells with cells and virus but no compound (negative control, max CPE), a column with cells but no compound or virus (positive control, minimum CPE), and a column with no cells or virus or compound (background plate/reagent control). The control wells with cells but no virus are given an additional 25 μL of growth media containing an equal quantity of sucrose as those wells receiving the viral stock in order to keep consistent in media and volume conditions. The outer wells of the plate are filled with 125 μL of moat media (DMEM, 1% Penn/Strep) to act as a thermal and evaporative moat around the test wells. Following a 5-day incubation period, the plates are read using ATPlite (50 μL added per well), which quantifies the amount of ATP (a measure of cell health) present in each well. Assay plates are read using the Envision luminometer. In parallel, cytotoxicity is examined on an additional 96-well plate treated in an identical manner, but substituting the 25 μL of viral stock for 25 μL of growth media. […] EC50 ranges are as follows: A<0.4 μM; B 0.4-0.8 μM; C>0.8 μM.
On the technique in general: Cellular ATP, detected with luciferase, serves as a proxy for viable cell number.

Test [2] has as its system Human RSV-B (genotype B, strain 9320). In words: RSV-B assay (qPCR or ATPlite) in A549 cells. It is filed as cell-based. The settings on record: human respiratory syncytial virus, 144 h, strain 9320, MOI 0.5, 6 days post infection, qPCR or ATPlite readout. From the text:
Hep-2 cells, (originally derived from tumors grown in irradiated-cortisonised weanling rats that had been injected with epidermoid carcinoma tissue from a person's larynx, but later found to be indistinguishable from HeLa cells by PCR DNA analysis), were used for the culturing of genotype B, strain 9320. Flasks were inoculated with RSV-B and viral stocks were collected once cytopathic effect (CPE) was greater than 90%. Viral stocks in 25% sucrose media were snap frozen using liquid nitrogen to increase viral stability. Viral stock titers were quantified by tissue culture infectious dose 50% (TCID50) using 8,000 cells per well and 5-fold viral dilutions across a 96-well plate, cultured for 4 days. Viral stock titers were also quantified by a plaque forming unit assay, as described elsewhere.
The assay is run as follows: A549 cells (originally derived through explant culture from a person's carcinomatous lung tissue) are seeded into the inner 60 wells of a 96-well plate at 3,000 cells per well in a volume of 50 μL using A549 growth media (F-12K Media, 1% Penn/Strep, 1% nonessential amino acids, 10% heat-inactivated FBS). 2-fold serial dilutions of control and test compounds are added to the wells in duplicate in a total volume of 25 μL. Viral stock is then added to the wells at a multiplicity of infection (MOI) of 0.5 in a volume of 25 μL, bringing the total volume of each well to 100 μL. The MOI is calculated using the PFU/mL, or TCID50 if unavailable. Each 96-well plate has a control column of 6 wells with cells and virus but no compound (negative control, max CPE), a column with cells but no compound or virus (positive control, minimum CPE), and a column with no cells or virus or compound (background plate/reagent control). The control wells with cells but no virus are given an additional 25 μL of growth media containing an equal quantity of sucrose as those wells receiving the viral stock in order to keep consistent in media and volume conditions. The outer wells of the plate are filled with 125 μL of moat media (DMEM, 1% Penn/Strep) to act as a thermal and evaporative moat around the test wells. 6 days post infection, the plates are read using qPCR or ATP lite (50 μL added per well), which quantifies the amount of ATP (a measure of cell health) present in each well. Assay plates treated with APTlite are read using the Envision luminometer. […] EC50 ranges are as follows: A<0.4 μM; B 0.4-0.8 μM; C>0.8 μM.

The term EC50 denotes the concentration needed to bring the measured effect to its halfway point. A low value points to higher potency in that assay. `O=C1Nc2ccccc2C(c2ccccc2)=N[C@@H]1Nc1nnc(-c2ccc(C(F)(F)F)nc2-c2cnc(C3CC3)nc2)o1` [Example 22]: the EC50 in test [1] was 400 to 800 nM; in test [2], below 400 nM.

Regarding `O=C1Nc2c(F)cccc2C(c2ccccc2)=N[C@@H]1Nc1nnc(-c2ncc(C3CC3)cc2-c2cnc(C3CC3)nc2)o1` [Example 76], the EC50 in test [1] and in test [2] was below 400 nM each time.

Regarding `CCc1ncc(-c2sc(C)nc2-c2nnc(N[C@@H]3N=C(c4ccccc4)c4cccc(F)c4NC3=O)o2)cn1` [Example 37], the EC50 in test [1] and in test [2] was below 400 nM throughout.

For `O=C1Nc2c(F)cccc2C(c2ccccc2)=N[C@@H]1Nc1nnc(-c2nc(C3(C(F)(F)F)CC3)sc2-c2cnc(C3CC3)nc2)o1` [Example 75], the EC50 in test [1] and in test [2] was below 400 nM throughout.

On to `CCc1ncc(-c2sc(C3(C(F)(F)F)CC3)nc2-c2nnc(N[C@@H]3N=C(c4ccccc4)c4cccc(F)c4NC3=O)o2)cn1` [Example 62], for which the EC50 in test [1] is 400 to 800 nM; in test [2], below 400 nM.

With `Cc1ncc(-c2sc(C3(C)CC3)nc2-c2nnc(N[C@H]3N=C(c4ccccc4)c4cccc(F)c4NC3=O)o2)cn1` [Example 67], the EC50 in test [1] and in test [2] was below 400 nM each time.

Consider `CCc1ncc(-c2sc(C3(C(F)(F)F)CC3)nc2-c2nnc(N[C@@H]3N=C(c4ccccc4)c4ccccc4NC3=O)o2)cn1` [Example 70], for which the EC50 in test [1] and in test [2] was above 800 nM throughout.

As to `Cc1ncc(-c2sc(C)nc2-c2nnc(N[C@@H]3N=C(c4ccccc4)c4cccc(F)c4NC3=O)o2)cn1` [Example 38], the EC50 in test [1] and in test [2] was below 400 nM each time.

Consider `CCc1ncc(-c2cccnc2-c2nnc(NC3N=C(c4ccccc4)c4ccccc4NC3=O)o2)cn1` (stereo not drawn) [Example 15], for which the EC50 is above 800 nM in test [1] and below 400 nM in test [2].

For `CC(C)(F)c1ncc(-c2cc(C(F)(F)F)cnc2-c2nnc(NC3N=C(c4ccccc4)c4ccccc4NC3=O)o2)cn1` (stereo not drawn) [Example 12], the EC50 in test [1] and in test [2] was above 800 nM each time.

For `Cc1ncc(-c2sc(C3(C)CC3)nc2-c2nnc(N[C@@H]3N=C(c4ccccc4)c4cccc(F)c4NC3=O)o2)cn1` [Example 66], the EC50 is 400 to 800 nM in test [1] and below 400 nM in test [2].

Take `O=C1Nc2ccccc2C(c2ccccc2)=NC1Nc1nnc(-c2ncc(C(F)(F)F)cc2-c2cnc(C(F)(F)F)nc2)o1` (stereo not drawn) [Example 10]: the EC50 in test [1] and in test [2] was above 800 nM each time.

For `CCc1ncc(-c2sc(C3CCC3)nc2-c2nnc(N[C@H]3N=C(c4ccccc4)c4cccc(F)c4NC3=O)o2)cn1` [Example 58], the EC50 in test [1] and in test [2] was below 400 nM in each case.

Turning to `CC(F)(F)c1ncc(-c2cc(C(F)(F)F)cnc2-c2nnc(NC3N=C(c4ccccc4)c4ccccc4NC3=O)o2)cn1` (stereo not drawn) [Example 11], the EC50 in test [1] was above 800 nM; in test [2], 400 to 800 nM.

For the molecule `Cc1ncc(-c2sc(C3CCC3)nc2-c2nnc(N[C@@H]3N=C(c4ccccc4)c4cccc(F)c4NC3=O)o2)cn1` [Example 60], the EC50 in test [1] and in test [2] was below 400 nM in each case.

Regarding `CCc1nc(-c2nnc(N[C@@H]3N=C(c4ccccc4)c4cccc(F)c4NC3=O)o2)c(-c2cnc(C3CC3)nc2)s1` [Example 53], the half-maximal effective concentration (EC50) is 400 to 800 nM in test [1] and below 400 nM in test [2].

With `O=C1Nc2ccccc2C(c2ccccc2)=NC1Nc1nnc(-c2cccnc2-c2cnc(C3CC3)nc2)o1` (stereo not drawn) [Example 23], the EC50 is above 800 nM in test [1] and below 400 nM in test [2].

On to `Cc1ncc(-c2sc(C3(C(F)(F)F)CC3)nc2-c2nnc(N[C@@H]3N=C(c4ccccc4)c4cccc(F)c4NC3=O)o2)cn1` [Example 72], for which the concentration giving a half-maximal response (EC50) in test [1] was above 800 nM; in test [2], below 400 nM.

For `CCc1ncc(-c2cc(C(F)(F)F)cnc2-c2nnc(NC3N=C(c4ccccc4)c4ccccc4NC3=O)o2)cn1` (stereo not drawn) [Example 8], the EC50 in test [1] and in test [2] was below 400 nM each time.

Turning to `CCc1ncc(-c2sc(C)nc2-c2nnc(N[C@H]3N=C(c4ccccc4)c4cccc(F)c4NC3=O)o2)cn1` [Example 36], the concentration for a half-maximal effect (EC50) in test [1] and in test [2] was below 400 nM each time.

On to `CCc1ncc(-c2sc(C3(C(F)(F)F)CC3)nc2-c2nnc(N[C@H]3N=C(c4ccccc4)c4ccccc4NC3=O)o2)cn1` [Example 71], for which the EC50 in test [1] and in test [2] was below 400 nM throughout.

`O=C1Nc2ccccc2C(c2ccccc2)=N[C@@H]1Nc1nnc(-c2ncc(C(F)F)cc2-c2cnc(C3CC3)nc2)o1` [Example 98]: the EC50 in test [1] and in test [2] was below 400 nM in each case.

As for `Cc1ncc(-c2sc(C3CCC3)nc2-c2nnc(N[C@H]3N=C(c4ccccc4)c4cccc(F)c4NC3=O)o2)cn1` [Example 61], the EC50 in test [1] and in test [2] was below 400 nM in each case.

In the case of `CCc1ncc(-c2sc(C3(C)CC3)nc2-c2nnc(N[C@H]3N=C(c4ccccc4)c4cccc(F)c4NC3=O)o2)cn1` [Example 69], the EC50 in test [1] and in test [2] was below 400 nM each time.

On to `O=C1Nc2ccccc2C(c2ccccc2)=NC1Nc1nnc(-c2ncc(C(F)(F)F)cc2-c2cnc(C3CCC3)nc2)o1` (stereo not drawn) [Example 13], for which the values for the EC50 in test [1] and in test [2] were 400 to 800 nM and below 400 nM, respectively.

Take `O=C1Nc2ccccc2C(c2ccccc2)=N[C@@H]1Nc1nnc(-c2ncc(CO)cc2-c2cnc(C3CC3)nc2)o1` [Example 97]: the EC50 in test [1] and in test [2] was below 400 nM throughout.

Turning to `Cc1ncc(-c2nc(C(F)(F)F)ccc2-c2nnc(N[C@H]3N=C(c4ccccc4)c4ccccc4NC3=O)o2)cn1` [Example 21], the EC50 in test [1] is 400 to 800 nM; in test [2], below 400 nM.

Take `C#Cc1ncc(-c2cc(C(F)(F)F)cnc2-c2nnc(NC3N=C(c4ccccc4)c4ccccc4NC3=O)o2)cn1` (stereo not drawn) [Example 19]: the results for the EC50 in test [1] and in test [2] were above 800 nM and 400 to 800 nM, respectively.

In the case of `O=C1Nc2ccccc2C(c2ccccc2)=N[C@@H]1Nc1nnc(-c2ncc(C3CC3)cc2-c2cnc(C3CC3)nc2)o1` [Example 77], the EC50 in test [1] and in test [2] was below 400 nM in each case.

As for `O=C1Nc2ccccc2C(c2ccccc2)=NC1Nc1nnc(-c2ncc(C(F)(F)F)cc2-c2cncnc2)o1` (stereo not drawn) [Example 2], the EC50 in test [1] and in test [2] was above 800 nM throughout.

With `Cc1ncc(-c2cc(C(F)(F)F)cnc2-c2nnc(N[C@H]3N=C(c4ccccc4)c4ccccc4NC3=O)o2)cn1` [Example 26], the EC50 in test [1] and in test [2] was below 400 nM each time.

With `Cc1nc(-c2nnc(N[C@@H]3N=C(c4ccccc4)c4cccc(F)c4NC3=O)o2)c(-c2cnc(C3CC3)nc2)s1` [Example 40], the EC50 in test [1] and in test [2] was below 400 nM each time.

In the case of `O=C1Nc2ccccc2C(c2ccccc2)=NC1Nc1nnc(-c2nc(C(F)(F)F)sc2-c2cnc(C3CC3)nc2)o1` (stereo not drawn) [Example 34], the 50% effective concentration (EC50) in test [1] and in test [2] was below 400 nM each time.
